Experiments:
Assay in all cases: biochemical
Conditions in all cases: read-out: Upstate KSS % inhibition at 1uM
KDR = KDR (Homo sapiens, UniProt P35968)
Experimental: (§1) In these selectivity assays the concentration of ATP was set to the Km value of ATP for each kinase tested to allow for a relative potency comparison between the various kinases. The compounds were tested at 1 µM final concentration. […] (A) Kinase selectivity screen (KSS) performed at Upstate Biotechnology. […] (B) KSS performed at University of Dundee (Division of Signal Transduction Therapy). […] (PDF) Click here for additional data file.

EPHB4 = EPHB4 (Homo sapiens, UniProt P54760)
Chain of EPHB4 (P54760 whole entry): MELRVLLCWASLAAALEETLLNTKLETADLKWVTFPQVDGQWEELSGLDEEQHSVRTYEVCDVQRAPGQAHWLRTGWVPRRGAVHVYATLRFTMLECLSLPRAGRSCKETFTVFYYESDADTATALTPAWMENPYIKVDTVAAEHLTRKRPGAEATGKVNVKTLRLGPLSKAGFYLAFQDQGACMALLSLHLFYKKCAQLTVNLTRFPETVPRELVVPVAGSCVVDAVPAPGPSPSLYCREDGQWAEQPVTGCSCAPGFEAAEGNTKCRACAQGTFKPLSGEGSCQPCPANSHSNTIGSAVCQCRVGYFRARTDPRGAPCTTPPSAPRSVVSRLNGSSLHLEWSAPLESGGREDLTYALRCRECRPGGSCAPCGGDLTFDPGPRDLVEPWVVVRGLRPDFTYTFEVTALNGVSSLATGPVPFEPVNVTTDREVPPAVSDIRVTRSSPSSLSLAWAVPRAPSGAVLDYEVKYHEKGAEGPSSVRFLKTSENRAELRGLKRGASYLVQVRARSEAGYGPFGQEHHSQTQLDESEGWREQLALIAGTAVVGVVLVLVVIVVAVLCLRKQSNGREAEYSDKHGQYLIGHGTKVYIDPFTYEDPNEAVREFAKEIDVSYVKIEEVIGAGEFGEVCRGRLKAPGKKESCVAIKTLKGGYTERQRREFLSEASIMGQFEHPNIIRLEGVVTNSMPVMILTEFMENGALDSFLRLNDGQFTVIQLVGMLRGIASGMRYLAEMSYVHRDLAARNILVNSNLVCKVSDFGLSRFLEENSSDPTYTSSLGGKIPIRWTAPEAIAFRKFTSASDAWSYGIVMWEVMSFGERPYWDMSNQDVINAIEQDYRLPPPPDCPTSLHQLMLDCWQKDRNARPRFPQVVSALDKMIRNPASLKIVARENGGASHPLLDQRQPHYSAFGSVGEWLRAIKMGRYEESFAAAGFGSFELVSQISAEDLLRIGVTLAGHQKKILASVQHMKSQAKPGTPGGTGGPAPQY
Experimental: as §1

Tie2 = target: T1, Tie2 (Homo sapiens, UniProt Q02763)
T1 construct: gene TEK
Experimental: as §1

SAPK4 = target: T2, SAPK4 (Homo sapiens, UniProt O15264)
T2 construct: gene MAPK13
Experimental: as §1

CDK7/cyclinH = CDK7/cyclinH (Homo sapiens, UniProt P50613)
Chain of CDK7/cyclinH (P50613 whole entry): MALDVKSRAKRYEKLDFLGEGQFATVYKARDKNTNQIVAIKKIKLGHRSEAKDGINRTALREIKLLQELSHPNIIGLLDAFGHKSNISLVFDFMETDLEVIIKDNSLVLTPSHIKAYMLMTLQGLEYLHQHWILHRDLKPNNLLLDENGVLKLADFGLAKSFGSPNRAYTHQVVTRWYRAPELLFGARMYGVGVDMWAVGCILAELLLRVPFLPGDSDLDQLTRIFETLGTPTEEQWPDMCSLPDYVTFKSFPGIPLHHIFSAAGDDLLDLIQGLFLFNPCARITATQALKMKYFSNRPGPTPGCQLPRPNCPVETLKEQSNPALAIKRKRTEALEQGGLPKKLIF
Experimental: as §1

Lyn = Lyn (Homo sapiens, UniProt P07948)
Experimental: as §1

WNK2 = WNK2 (Homo sapiens, UniProt Q9Y3S1)
Experimental: as §1

LCK = LCK (Homo sapiens, UniProt P06239)
Chain of LCK (P06239 whole entry): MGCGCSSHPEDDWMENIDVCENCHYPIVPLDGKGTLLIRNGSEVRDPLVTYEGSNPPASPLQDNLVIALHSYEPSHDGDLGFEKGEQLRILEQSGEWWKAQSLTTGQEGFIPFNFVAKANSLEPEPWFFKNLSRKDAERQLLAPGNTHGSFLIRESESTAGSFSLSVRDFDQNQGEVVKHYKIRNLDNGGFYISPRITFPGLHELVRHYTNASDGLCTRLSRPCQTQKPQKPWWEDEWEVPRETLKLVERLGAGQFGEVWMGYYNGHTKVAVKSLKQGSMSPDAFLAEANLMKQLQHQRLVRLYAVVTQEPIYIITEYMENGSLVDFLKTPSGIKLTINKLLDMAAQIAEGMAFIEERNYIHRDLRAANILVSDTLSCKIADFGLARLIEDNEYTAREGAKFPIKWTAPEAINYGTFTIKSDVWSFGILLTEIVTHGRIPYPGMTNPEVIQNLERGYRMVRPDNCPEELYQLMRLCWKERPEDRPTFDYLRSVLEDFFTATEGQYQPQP
Experimental: as §1

MSK1 = target: T3, MSK1 (Homo sapiens, UniProt O75582)
T3 construct: gene RPS6KA5
Experimental: as §1

mouse MKK4 = target: T4, mouse MKK4 (Mus musculus, UniProt P47809)
T4 construct: gene Map2k4
Experimental: as §1

c-RAF = target: T5, c-RAF (Homo sapiens, UniProt P04049)
T5 construct: gene RAF1
Experimental: as §1

Rsk1 = target: T6, Rsk1 (Homo sapiens, UniProt Q15418)
T6 construct: gene RPS6KA1
Experimental: as §1

JAK2 = JAK2 (Homo sapiens, UniProt O60674)
Experimental: as §1

BMX = BMX (Homo sapiens, UniProt P51813)
Experimental: as §1

IKKalpha = target: T7, IKKalpha (Homo sapiens, UniProt O15111)
T7 construct: gene CHUK
Experimental: as §1

DDR2 = DDR2 (Homo sapiens, UniProt Q16832)
Experimental: as §1

DYRK2 = target: T8, DYRK2 (Homo sapiens, UniProt Q92630)
T8 sequence (Q92630 1-601): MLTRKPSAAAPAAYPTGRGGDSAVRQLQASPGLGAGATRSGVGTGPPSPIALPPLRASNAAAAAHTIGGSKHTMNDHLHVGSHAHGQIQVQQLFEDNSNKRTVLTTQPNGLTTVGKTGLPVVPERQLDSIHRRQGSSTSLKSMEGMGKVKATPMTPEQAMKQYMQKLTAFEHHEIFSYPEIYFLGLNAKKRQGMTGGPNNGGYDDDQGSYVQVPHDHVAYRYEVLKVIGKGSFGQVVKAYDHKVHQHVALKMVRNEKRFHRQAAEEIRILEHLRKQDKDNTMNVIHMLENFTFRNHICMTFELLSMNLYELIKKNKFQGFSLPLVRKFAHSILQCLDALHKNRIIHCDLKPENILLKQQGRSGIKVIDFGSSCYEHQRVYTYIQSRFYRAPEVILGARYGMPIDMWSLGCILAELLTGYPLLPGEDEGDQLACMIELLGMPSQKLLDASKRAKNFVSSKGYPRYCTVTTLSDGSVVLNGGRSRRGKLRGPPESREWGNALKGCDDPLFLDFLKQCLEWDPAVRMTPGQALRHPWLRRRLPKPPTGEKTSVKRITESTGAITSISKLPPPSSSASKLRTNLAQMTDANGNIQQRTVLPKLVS
Experimental: as §1

MRCKalpha = target: T9, MRCKalpha (Homo sapiens, UniProt Q5VT25)
T9 construct: gene CDC42BPA
Experimental: as §1

RSK2 = target: T10, RSK2 (Homo sapiens, UniProt P51812)
T10 construct: gene RPS6KA3
Experimental: as §1

GSK3beta = target: T11, GSK3beta (Homo sapiens, UniProt P49841)
T11 construct: gene GSK3B
Experimental: as §1

SAPK2b = target: T12, SAPK2b (Homo sapiens, UniProt Q15759)
T12 construct: gene MAPK11
Experimental: as §1

Arg = target: T13, Arg (Homo sapiens, UniProt P42684)
T13 construct: gene ABL2
Experimental: as §1

CDK1/cyclinB = CDK1/cyclinB (Homo sapiens, UniProt P06493)
Experimental: as §1

Aurora-A = target: T14, Aurora-A (Homo sapiens, UniProt O14965)
T14 construct: gene AURKA
T14 sequence (O14965 whole entry): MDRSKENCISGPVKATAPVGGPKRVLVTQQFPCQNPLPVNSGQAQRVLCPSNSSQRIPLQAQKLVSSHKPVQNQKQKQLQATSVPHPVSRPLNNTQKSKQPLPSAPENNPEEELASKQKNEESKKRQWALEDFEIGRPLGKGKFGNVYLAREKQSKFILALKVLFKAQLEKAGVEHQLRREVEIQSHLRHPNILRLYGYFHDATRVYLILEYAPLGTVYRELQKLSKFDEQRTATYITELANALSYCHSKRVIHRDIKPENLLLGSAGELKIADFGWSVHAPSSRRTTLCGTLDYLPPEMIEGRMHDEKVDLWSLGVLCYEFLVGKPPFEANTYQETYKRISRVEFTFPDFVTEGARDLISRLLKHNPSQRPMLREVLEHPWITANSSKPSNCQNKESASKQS
Experimental: as §1

EPHB2 = EPHB2 (Homo sapiens, UniProt P29323)
Experimental: as §1

PKBgamma = target: T15, PKBgamma (Homo sapiens, UniProt Q9Y243)
T15 construct: gene AKT3
Experimental: as §1

PASK = PASK (Homo sapiens, UniProt Q96RG2)
Chain of PASK (Q96RG2 whole entry): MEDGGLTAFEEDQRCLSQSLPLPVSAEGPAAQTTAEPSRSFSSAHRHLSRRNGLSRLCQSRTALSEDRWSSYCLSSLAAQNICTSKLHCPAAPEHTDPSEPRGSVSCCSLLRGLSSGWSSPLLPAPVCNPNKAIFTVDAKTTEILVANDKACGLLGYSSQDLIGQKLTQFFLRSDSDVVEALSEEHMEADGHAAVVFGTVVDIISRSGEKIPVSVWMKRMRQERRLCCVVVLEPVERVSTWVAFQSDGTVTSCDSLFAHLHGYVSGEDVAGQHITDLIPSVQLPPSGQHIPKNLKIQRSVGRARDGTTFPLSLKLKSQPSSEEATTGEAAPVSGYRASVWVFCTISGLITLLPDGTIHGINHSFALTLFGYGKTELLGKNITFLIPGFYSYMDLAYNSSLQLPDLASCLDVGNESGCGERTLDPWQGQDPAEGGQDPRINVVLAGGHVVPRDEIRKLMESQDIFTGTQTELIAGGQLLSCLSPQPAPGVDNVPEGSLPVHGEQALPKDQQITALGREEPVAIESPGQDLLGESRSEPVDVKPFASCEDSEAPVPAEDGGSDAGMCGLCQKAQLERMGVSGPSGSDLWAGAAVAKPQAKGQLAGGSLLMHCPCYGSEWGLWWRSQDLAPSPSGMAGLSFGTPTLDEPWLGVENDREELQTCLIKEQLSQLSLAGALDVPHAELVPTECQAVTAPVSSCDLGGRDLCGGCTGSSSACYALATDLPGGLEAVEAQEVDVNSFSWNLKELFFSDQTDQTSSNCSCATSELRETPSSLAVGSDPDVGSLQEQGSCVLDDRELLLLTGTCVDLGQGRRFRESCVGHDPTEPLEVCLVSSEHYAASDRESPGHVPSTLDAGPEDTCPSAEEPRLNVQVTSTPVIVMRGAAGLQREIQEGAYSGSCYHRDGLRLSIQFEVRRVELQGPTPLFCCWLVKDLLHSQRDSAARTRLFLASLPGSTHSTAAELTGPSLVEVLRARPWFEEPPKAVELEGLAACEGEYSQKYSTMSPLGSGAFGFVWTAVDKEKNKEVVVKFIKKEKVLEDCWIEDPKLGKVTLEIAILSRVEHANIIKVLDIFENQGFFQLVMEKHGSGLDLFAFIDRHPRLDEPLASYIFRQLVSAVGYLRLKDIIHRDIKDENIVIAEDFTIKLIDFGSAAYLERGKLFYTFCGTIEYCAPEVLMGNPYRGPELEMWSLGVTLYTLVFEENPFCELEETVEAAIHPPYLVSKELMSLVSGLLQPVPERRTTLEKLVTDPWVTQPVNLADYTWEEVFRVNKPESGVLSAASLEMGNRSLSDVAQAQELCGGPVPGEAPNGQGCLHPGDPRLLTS
Experimental: as §1

PKCgamma = target: T16, PKCgamma (Homo sapiens, UniProt P05129)
T16 construct: gene PRKCG
Experimental: as §1

Chain of KDR (P35968 whole entry): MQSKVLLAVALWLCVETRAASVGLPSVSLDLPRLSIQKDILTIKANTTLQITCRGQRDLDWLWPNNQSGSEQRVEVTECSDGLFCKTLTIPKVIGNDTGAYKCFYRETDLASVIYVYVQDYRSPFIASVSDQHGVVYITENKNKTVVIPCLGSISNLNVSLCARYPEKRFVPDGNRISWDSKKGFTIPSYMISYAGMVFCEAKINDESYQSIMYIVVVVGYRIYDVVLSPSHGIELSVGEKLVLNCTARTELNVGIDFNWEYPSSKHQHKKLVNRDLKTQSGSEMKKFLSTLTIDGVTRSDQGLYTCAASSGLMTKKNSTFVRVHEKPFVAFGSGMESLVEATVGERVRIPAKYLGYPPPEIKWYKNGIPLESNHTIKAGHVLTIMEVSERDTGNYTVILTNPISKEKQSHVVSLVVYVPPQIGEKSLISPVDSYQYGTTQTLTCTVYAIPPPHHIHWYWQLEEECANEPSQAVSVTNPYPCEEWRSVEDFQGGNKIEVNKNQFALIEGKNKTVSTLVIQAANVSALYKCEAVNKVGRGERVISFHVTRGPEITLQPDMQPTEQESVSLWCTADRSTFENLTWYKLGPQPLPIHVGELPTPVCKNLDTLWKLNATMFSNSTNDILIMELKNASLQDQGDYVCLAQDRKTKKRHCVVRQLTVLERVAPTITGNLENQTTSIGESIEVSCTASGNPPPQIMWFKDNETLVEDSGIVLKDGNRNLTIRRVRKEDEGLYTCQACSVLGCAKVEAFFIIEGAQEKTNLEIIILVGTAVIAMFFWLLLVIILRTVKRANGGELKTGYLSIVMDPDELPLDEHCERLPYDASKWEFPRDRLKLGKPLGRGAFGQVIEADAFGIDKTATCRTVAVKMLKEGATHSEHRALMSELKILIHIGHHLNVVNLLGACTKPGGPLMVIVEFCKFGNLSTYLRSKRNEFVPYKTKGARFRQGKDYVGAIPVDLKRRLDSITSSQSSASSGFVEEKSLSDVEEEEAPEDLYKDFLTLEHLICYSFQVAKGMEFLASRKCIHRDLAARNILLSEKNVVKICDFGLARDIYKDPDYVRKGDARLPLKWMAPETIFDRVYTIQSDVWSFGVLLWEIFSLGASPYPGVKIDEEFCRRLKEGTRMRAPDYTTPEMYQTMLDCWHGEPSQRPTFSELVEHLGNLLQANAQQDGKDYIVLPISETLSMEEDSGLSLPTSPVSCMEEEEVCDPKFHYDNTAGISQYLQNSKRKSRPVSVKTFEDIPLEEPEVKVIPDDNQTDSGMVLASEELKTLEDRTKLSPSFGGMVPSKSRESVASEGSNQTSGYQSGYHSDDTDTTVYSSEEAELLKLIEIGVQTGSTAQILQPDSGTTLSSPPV

`OCCn1cc(-c2cnc3nnn(Cc4ccc5ncccc5c4)c3n2)cn1` [METi, PF-04217903] showed an inhibition at 1 µM (KDR) of -9%, an inhibition at 1 µM (EPHB4) of -23% and an inhibition at 1 µM (Tie2) of -32%. It also gave an inhibition at 1 µM (SAPK4) of -18%, an inhibition at 1 µM (CDK7/cyclinH) of -14% and an inhibition at 1 µM (Lyn) of 2%. The inhibition at 1 µM (WNK2) was -16%, the inhibition at 1 µM (LCK) was -8% and the inhibition at 1 µM (MSK1) was -5%. The inhibition at 1 µM (mouse MKK4) was -2%, the inhibition at 1 µM (c-RAF) was -16% and the inhibition at 1 µM (Rsk1) was -11%. The inhibition at 1 µM (JAK2) was -6%, the inhibition at 1 µM (BMX) was -10% and the inhibition at 1 µM (IKKalpha) was -2%. For the same molecule, the inhibition at 1 µM (DDR2) was 0%, the inhibition at 1 µM (DYRK2) was -1% and the inhibition at 1 µM (MRCKalpha) was 5%. The inhibition at 1 µM (RSK2) was -22%, the inhibition at 1 µM (GSK3beta) was -1% and the inhibition at 1 µM (SAPK2b) was 1%. The inhibition at 1 µM (Arg) was 10%, the inhibition at 1 µM (CDK1/cyclinB) was -7% and the inhibition at 1 µM (Aurora-A) was -7%. For the same molecule, the inhibition at 1 µM (EPHB2) was 53%, the inhibition at 1 µM (PKBgamma) was 5% and the inhibition at 1 µM (PASK) was -13%. The inhibition at 1 µM (PKCgamma) was 5%.
